From patent publication US20260167622A1, “PAN-KRAS DEGRADING AGENT, AND PREPARATION METHOD THEREFOR AND USE THEREOF” (LEADINGTAC PHARMACEUTICAL (SHAOXING) CO., LTD., priority 2022, published 2026) come the findings set out here.

A value given as a limit tells only on which side of the number the result lay.

Type in all cases: cell-based
Assay [1] relates to KRAS WT human gastric cancer cell MKN1. Kind of assay: 3D cell proliferation inhibition assay, MKN1. As to conditions: MKN-1, 168 h, 3D culture, 7 days, CTG. The source says:
(§1) Test Example 6: 3D Cell Proliferation Inhibition Assay
(§2) The inhibitory effects of the compounds on 3D cell proliferation were investigated on KRAS G12C mutant human non-small cell lung cancer cell NCI-H358, KRAS G12D mutant human lung cancer cell A427, KRAS G12D mutant human gastric cancer cell AGS, KRAS G12D mutant human metastatic pancreatic cancer cell AsPc-1, KRAS G12V mutant human lung squamous carcinoma cell SW900, KRAS G12V mutant human colorectal cancer cell SW620, KRAS G13D mutant human colorectal cancer epithelial cell DLD-1, and KRAS WT human gastric cancer cell MKN1. The specific procedures were as follows:
(§3) 10 μL of each compound solution diluted in a gradient was added to corresponding wells of a 96-well low-adsorption microplate (PerkinElmer), so that the final concentrations of the test compounds in the reaction system were in a range of 10000-0.026 nM. The final concentration of DMSO was 0.2%. Then 90 µL of cells were correspondingly seeded into each well to achieve a cell density of 5×10^2 cells/well (the cell density of SW900 was 5×10^3 cells/well, and the cell density of MKN1 was 1×10^3 cells/well). In addition to test wells for the test compounds, both a DMSO control well and a medium control well were set, with the DMSO control well containing DMSO and cells and the medium well containing only a medium. After the sample loading, the 96-well low-adsorption microplate was incubated in an incubator at 37° C. with […] for 7 days. After 7 days, the microplate was taken out, and 100 μL of CTG reagent (Promega) was added to each well. The plate was incubated at room temperature for 60 m and read on a microplate reader EnVision by the chemiluminescence program. The inhibition rates of the compounds at each concentration were calculated using the formula for the percentage inhibition of cell proliferation: inhibition rate 00=(mean value of DMSO control group−single concentration reading value of compound)/(mean value of DMSO control group−mean value of medium control group)×100. Then non-linear curve fillings for logarithmic concentration-inhibition rate were performed by GraphPad Prism 8, and the IC50 values of the compounds were obtained (Table 6).

Assay [2] concerns KRAS G12V mutant human lung squamous carcinoma cell SW900. Kind of assay: 3D cell proliferation inhibition assay, SW900. As to conditions: SW900, 168 h, 3D culture, 7 days, CTG.
Description: as §1, §2, §3

Assay [3] relates to KRAS G12D mutant human metastatic pancreatic cancer cell AsPc-1. Description: 3D cell proliferation inhibition assay, AsPc-1. As to conditions: ASPC1, 168 h, 3D culture, 7 days, CTG.
Description: as §1, §2, §3

Assay [4] addresses T1, KRAS G12V protein in SW900 cells (Homo sapiens, UniProt P01116, G12V).
T1 construct: endogenous in cells; host or cells: SW900
Description: KRAS degradation assay (Western Blot) in SW900 cells. As to conditions: 24 h. From the text: (§4) Test Example 5: KRAS G12C, KRAS G12D, KRAS G12V, KRAS G13D, and KRAS WT (Expanded) Degradation Assays
(§5) The degradation effect of the compounds on KRAS was investigated on KRAS G12C mutant human non-small cell lung cancer cell NCI-H358, KRAS G12D mutant human metastatic pancreatic cancer cell AsPc-1, KRAS G12D mutant human lung cancer cell A427, KRAS G12V mutant human colorectal cancer cell SW620, KRAS G12V mutant human lung cancer cell SW900, KRAS G13D mutant human colorectal cancer epithelial cell DLD-1, and KRAS WT human gastric cancer cell MKN-1. The specific procedures were as follows: 0.95 mL of cells were seeded into each well of a 24-well cell culture plate to achieve a cell density of 5×10^5 cells/well; and the cell plate was incubated in an incubator at 37° C. with 5% CO2 overnight. Then 50 μL of the compound solution after dilution was added to each of the wells with the corresponding cells, so that the final concentration of the compound was in a range of 0.03-3000 nM. The final concentration of DMSO was 0.25%. After the compounds were added, the cell plate was incubated in an incubator at 37° C. with 5% CO2 for 24 h. The culture medium in the 24-well cell culture plate was then removed, and the plate was washed twice with 1×PBS (KeyGEN). 120 μL of RIPA (strong) lysis buffer (Beyotime) (supplemented with 1 mM phenylmethylsulfonyl fluoride, a protease inhibitor mixture (Beyotime), and a protease phosphatase inhibitor mixture (Beyotime)) was added to lyse adherent SW900 cells at the bottom of the cell culture plate. After the plate was left to stand on ice for 30 min, the protein lysate in each well was transferred to a 1.5 mL centrifuge tube and centrifuged at 15000 g for 20 min at 4° C. The cell lysate supernatants after centrifugation were cryopreserved in a refrigerator at −80° C. for later use.
(§6) After the samples of the cell lysate supernatants that had been prepared were thawed from the refrigerator at −80° C., the total protein concentrations of the cell lysates were determined using a BCA protein quantification kit (Tiangen). The total protein concentrations of the samples were then adjusted to 0.5 μg/μL with PBS and 5×SDS-PAGE protein loading buffer (Beyotime), and the samples were incubated in a water bath at 100° C. for 15 min. The samples were then incubated in an ice bath for 5 min and centrifuged at 14000 g for 1 min at 4° C., and the supernatants were mixed well as loading samples for the Western Blot assay. The samples were loaded into wells of a 10% precast gel (KeyGEN) with a loading volume of 10 μL (total protein: 5 μg), a sufficient Tris-MOPS-SDS running buffer (Adamas) was added, and then electrophoresis was performed at a constant voltage of 120 V for 55 min. After the electrophoresis, the proteins on the gel were transferred to PVDF membranes at a constant current of 250 mA for 55 min. After the membrane transfer, the PVDF membranes were incubated in 1× Quick Block blocking buffer (Beyotime)at room temperature for 30 min. After the blocking, the PVDF membranes were separately incubated at 4° C. overnight with the KRAS antibody (Abcam) diluted in a ratio of 1:1000 and the β-actin antibody (Abcam) diluted in a ratio of 1:2000 in 5% BSA as the diluent, and then washed with 1×TBST buffer (2.4 g of Tris, 8.8 g of NaCl, 1.5 mL of Tween 20, with pH adjusted to 7.4, with the volume brought to 1 L) 3 times for 10 min/time. The membranes were incubated with a secondary antibody (Abcam) diluted in 5% BSA at room temperature for 2 h, and then washed with 1×TBST buffer 3 times for 10 min/time. Finally, the membranes were incubated with Clarity Western ECL Substrate (BIO-RAD) for 5 min for luminescence and color development, and a ChemiScope 6200 Touch chemiluminescence imaging system (Clinx) was used for color development and protein mapping. Gray value analysis of the protein maps was performed using the chemiluminescence analysis software (Clinx). […]

The test system of assay [5] is KRAS G12V mutant human colorectal cancer cell SW620. Kind of assay: 3D cell proliferation inhibition assay, SW620. The conditions noted are these: SW-620, 168 h, 3D culture, 7 days, CTG.
Description: as §1, §2, §3

In assay [6] the test system is KRAS G12C mutant human non-small cell lung cancer cell NCI-H358. Description: 3D cell proliferation inhibition assay, NCI-H358. As to conditions: NCI-H358, 168 h, 3D culture, 7 days, CTG.
Description: as §1, §2, §3

The test system of assay [7] is KRAS G13D mutant human colorectal cancer epithelial cell DLD-1. Kind of assay: 3D cell proliferation inhibition assay, DLD-1. The conditions noted are these: DLD-1, 168 h, 3D culture, 7 days, CTG.
Description: as §1, §2, §3

Assay [8] has as its target T2, KRAS G12V protein in SW620 cells (Homo sapiens, UniProt P01116, G12V).
T2 construct: endogenous in cells; host or cells: SW620
Kind of assay: KRAS degradation assay (Western Blot) in SW620 cells. The conditions noted are these: for DC50: 24 h; for Dmax: SW-620, 24 h.
Description: as §4, §5, §6

Broadly, the IC50 is the point on the concentration scale where inhibition reaches its midpoint. The low end stands for greater potency, the high end for weaker potency. A word on the DC50: it is the concentration giving 50% degradation. A higher DC50 goes with a less potent degrader. By Dmax is commonly meant the largest share of the target that was removed. Low values mean a partial loss of target, high ones a fuller loss of target.

T2 sequence (P01116 1-188 isoform P01116-2 G12V): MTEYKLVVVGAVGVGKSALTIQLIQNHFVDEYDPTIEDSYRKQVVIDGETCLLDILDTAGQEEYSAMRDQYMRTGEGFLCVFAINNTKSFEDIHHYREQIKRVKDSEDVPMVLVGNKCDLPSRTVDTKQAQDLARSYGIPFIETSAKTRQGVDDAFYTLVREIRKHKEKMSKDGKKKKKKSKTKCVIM
T1 sequence (P01116 1-188 isoform P01116-2 G12V): as above

With `C#Cc1c(F)ccc2cc(O)cc(-c3ncc4c(N5CCCCCC5)nc(OCC5(CN6CCN(CC7CCC8(CC7)CCN(C(=O)c7ccc(C)c(N9CCC(=O)NC9=O)c7)CC8)CC6)CC5)nc4c3F)c12` [Example 37, 1-(5-(9-((4-((1-(((4-(azepan-1-yl)-7-(8-ethynyl-7-fluoro-3-hydroxynaphthalen-1-yl)-8-fluoropyrido[4,3-d]pyrimidin-2-yl)oxy)methyl)cyclopropyl)methyl)piperazin-1-yl)methyl)-3-azaspiro[5.5]undecane-3-carbonyl)-2-methylphenyl)dihydropyrimidine-2,4(1H,3H)-dione], the IC50 in assay [1] is at most 0.05 µM; in assay [2] it was at most 0.05 µM; in assay [3] it was 0.1 to 0.5 µM.

For the compound `C#Cc1cccc2cc(O)cc(-c3ncc4c(N5CCC[C@@](C)(O)C5)nc(OCC5(CN6CCC(CCOCC7CCN(C(=O)c8ccc(OC)c(N9CCC(=O)NC9=O)c8)CC7)CC6)CC5)nc4c3F)c12` [Example 38, (R)-1-(5-(4-((2-(1-((1-(((7-(8-ethynyl-3-hydroxynaphthalen-1-yl)-8-fluoro-4-(3-hydroxy-3-methylpiperidin-1-yl)pyrido[4,3-d]pyrimidin-2-yl)oxy)methyl)cyclopropyl)methyl)piperidin-4-yl)ethoxy)methyl)piperidine-1-carbonyl)-2-methoxyphenyl)dihydropyrimidine-2,4(1H,3H)-dione], the values for the IC50 in assay [1], in assay [2] and in assay [3] were at most 0.05 µM, 0.1 to 0.5 µM and 0.05 to 0.1 µM, respectively. This compound also gave a half-maximal degradation concentration (DC50) in assay [4] of at most 0.05 µM. Besides, in assay [4], the Dmax was in the range of 80 to 100%.

As for `C#Cc1c(F)ccc2cc(O)cc(-c3ncc4c(N5CCC[C@@](C)(O)C5)nc(OCC5(CN6CCN(CCC#CC7CCN(C(=O)c8ccc(Cl)c(N9CCC(=O)NC9=O)c8)CC7)CC6)CC5)nc4c3F)c12` [Example 43, (R)-1-(2-chloro-5-(4-(4-(4-((1-(((7-(8-ethynyl-7-fluoro-3-hydroxynaphthalen-1-yl)-8-fluoro-4-(3-hydroxy-3-methylpiperidin-1-yl)pyrido[4,3-d]pyrimidin-2-yl)oxy)methyl)cyclopropyl)methyl)piperazin-1-yl)but-1-yn-1-yl)piperidine-1-carbonyl)phenyl)dihydropyrimidine-2,4(1H,3H)-dione], the IC50 in assay [1] was 0.05 to 0.1 µM; in assay [2], at most 0.05 µM; in assay [3] it was 0.05 to 0.1 µM. Also, in assay [4], the half-maximal degradation concentration (DC50) is at most 0.05 µM. The Dmax in assay [4] fell in the range of 80 to 100%.

For `C#Cc1c(F)ccc2cc(O)cc(-c3ncc4c(N5CCCC(F)(F)C5)nc(OCC5(CN6CCN(CC7CCC8(CC7)CCN(C(=O)c7ccc(OC)c(N9CCC(=O)NC9=O)c7)CC8)CC6)CC5)nc4c3F)c12` [Example 72, 1-(5-(9-((4-((1-(((4-(3,3-difluoropiperidin-1-yl)-7-(8-ethynyl-7-fluoro-3-hydroxynaphthalen-1-yl)-8-fluoropyrido[4,3-d]pyrimidin-2-yl)oxy)methyl)cyclopropyl)methyl)piperazin-1-yl)methyl)-3-azaspiro[5.5]undecane-3-carbonyl)-2-methoxyphenyl)dihydropyrimidine-2,4(1H,3H)-dione], the IC50 in assay [5] turned out to be 0.022 µM; in assay [1] it was 0.102 µM; in assay [6], 0.0329 µM; in assay [7], 0.0543 µM; in assay [3], 0.176 µM. The same compound came in with a DC50 in assay [8] of 0.0118 µM. In addition, the Dmax in assay [8] was determined as 95.2%.

As to `C#Cc1c(F)ccc2cc(O)cc(-c3ncc4c(N5CCC[C@@](C)(O)C5)nc(OCC(C)CN5CCN(CC6CCC7(CC6)CCN(C(=O)c6ccc(OC)c(N8CCC(=O)NC8=O)c6)CC7)CC5)nc4c3F)c12` (stereo partly drawn) [Example 86, 1-(5-(9-((4-(3-((7-(8-ethynyl-7-fluoro-3-hydroxynaphthalen-1-yl)-8-fluoro-4-((R)-3-hydroxy-3-methylpiperidin-1-yl)pyrido[4,3-d]pyrimidin-2-yl)oxy)-2-methylpropyl)piperazin-1-yl)methyl)-3-azaspiro[5.5]undecane-3-carbonyl)-2-methoxyphenyl)dihydropyrimidine-2,4(1H,3H)-dione], the 50% inhibitory concentration (IC50) in assay [5] came to 0.00701 µM; in assay [1], 0.00523 µM; in assay [6] it was 0.00663 µM; in assay [7] it was 0.00998 µM; in assay [3], 0.0212 µM. Half-maximal degradation in assay [8] (DC50) was put at 0.0142 µM. This compound also gave a maximal degradation (Dmax) in assay [8] of 89.2%.

Take `C#Cc1c(F)ccc2cc(O)cc(-c3ncc4c(N5CCC[C@@](C)(O)C5)nc(OC[C@H](C)CN5CCN(CC6CCC7(CC6)CCN(C(=O)c6cc(N8CCC(=O)NC8=O)c(C)cc6F)CC7)CC5)nc4c3F)c12` [Example 162, 1-(5-(9-((4-((R)-3-((7-(8-ethynyl-7-fluoro-3-hydroxynaphthalen-1-yl)-8-fluoro-4-((R)-3-hydroxy-3-methylpiperidin-1-yl)pyrido[4,3-d]pyrimidin-2-yl)oxy)-2-methylpropyl)piperazin-1-yl)methyl)-3-azaspiro[5.5]undecane-3-carbonyl)-4-fluoro-2-methylphenyl)dihydropyrimidine-2,4(1H,3H)-dione]: the concentration for half-maximal inhibition (IC50) was determined as 0.00485 µM in assay [5], 0.00383 µM in assay [6], 0.0128 µM in assay [7] and 0.0199 µM in assay [3]. The compound further registered a DC50 in assay [8] of 0.0217 µM. In assay [8], this compound returned a Dmax of 100%.
